Source: article PMC11714206, “Massively Parallel Screening of Toll/Interleukin‐1 Receptor (TIR)‐Derived Peptides Reveals Multiple Toll‐Like Receptors (TLRs)‐Targeting Immunomodulatory Peptides” (Advanced Science, 2024)
Values belong to the sequence of their own block, whether it stands above or below them.

Molecular target: T1, MAL^TIR (Homo sapiens, UniProt P58753)
T1 construct: MAL (residues 79–221); 6xHis; made in house; host or cells: E. coli BL21 (DE3)
Test: T‐Surf phage library (P8 and P3) selection against MAL^TIR, four rounds, NGS read counts
Type: binding
Settings: for P8_MAL Rank (after) / P8_MAL Rank (before): P8 library; for Population: 4th round of selection against MAL TIR, share of NGS reads; for P3_MAL Rank (after) / P3_MAL Rank (before): P3 library
In short: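 Coat TIR domain 5 µg mL^−1 overnight; block 0.2% BSA/PBS 1 h, 4 °C; add phage library 1 h, RT; wash ×4 PBS/0.5% Tween‐20; elute 100 mM HCl, neutralize Tris; amplify in TG1, PEG‐precipitate. Repeat to round 4; barcode PCR, NovaSeq, count reads.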

[1] = selection against MAL, rank by count after grouping
[2] = selection against MAL, rank by count before grouping
[3] = P3_MAL pool: P3 T-Surf phage library
[4] = P8_MAL pool: P8 T-Surf phage library
[5] = P8_MAL: rank by count after grouping
[6] = P8_MAL: rank by count before grouping
[7] = selection against MAL TIR, rank by count after grouping
[8] = selection against MAL TIR, rank by count before grouping
[9] = selection against MAL, rank after grouping
[10] = selection against MAL, rank before grouping
[11] = P3_MAL: rank by count after grouping
[12] = P3_MAL: rank by count before grouping
[13] = 4R selection against MAL, rank after grouping
[14] = 4R selection against MAL, rank before grouping

T1 sequence (P58753 79-221): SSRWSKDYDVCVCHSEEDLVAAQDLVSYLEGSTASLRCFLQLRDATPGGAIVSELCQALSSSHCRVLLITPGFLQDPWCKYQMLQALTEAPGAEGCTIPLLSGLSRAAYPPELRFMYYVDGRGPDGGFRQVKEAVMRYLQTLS

Sequence: WFYVRLVILALRDNNM
P8_MAL Rank (after) [1]: 690
P8_MAL Rank (before) [2]: 1128

Sequence: AFFGAQLKSVLGNPTM
Population [4]: 0.0034%

Sequence: HFFLDSTEKHSGRNQL
P8_MAL Rank (after) [7]: 277
P8_MAL Rank (before) [8]: 2392

Sequence: WFYERLVSMITRDTNV
P8_MAL Rank (after) [9]: 486
P8_MAL Rank (before) [10]: 1271

Sequence: LFFWESLKQLLRSDG
Rank (after) [5]: 178
Rank (before) [6]: 2104

Sequence: KRFWERLRYMLPHSSL
P3_MAL Rank (after) [7]: 242
P3_MAL Rank (before) [8]: 3466

Sequence: AFLGEQLHTMVDKPTM
P8_MAL Rank (after) [9]: 491
P8_MAL Rank (before) [10]: 1776

Sequence: YAFTGHLRRYLVLRGV
P3_MAL Rank (after) [9]: 509
P3_MAL Rank (before) [10]: 1369

Sequence: AFFWAQLKSVLRTQTM
P8_MAL Rank (after) [1]: 696
P8_MAL Rank (before) [2]: 1633

Sequence: LKWGDPYFWIKLRYTM
P3_MAL Rank (after) [7]: 233
P3_MAL Rank (before) [8]: 2212

Sequence: SLFLSSRFKDDADLVGQ
Rank (after) [11]: 433
Rank (before) [12]: 3057

Sequence: HQWRNALTAAANLSGW
Population [3]: 0.00902%

Sequence: HFSRIQLKSRLGETSF
Rank (after) [5]: 444
Rank (before) [6]: 2425

Sequence: AFRYTFLIILTDPTNF
P8_MAL Rank (after) [13]: 599
P8_MAL Rank (before) [14]: 1916

Sequence: AFFCTQLKSVLGNPTI
P8_MAL Rank (after) [13]: 587
P8_MAL Rank (before) [14]: 1588

Sequence: WSLFTVRSVLYAMSPA
P8_MAL Rank (after) [9]: 518
P8_MAL Rank (before) [10]: 1407

Sequence: AFLYTFLNNLIHPTTF
Rank (after) [5]: 145
Rank (before) [6]: 1868

Sequence: KEVEGWRDALPHRYEP
P3_MAL Rank (after) [7]: 191
P3_MAL Rank (before) [8]: 1095

Sequence: LKVESWLQTLAKAGKL
P3_MAL Rank (after) [1]: 763
P3_MAL Rank (before) [2]: 2262

Sequence: KIILDTAARIWGWRQA
P3_MAL Rank (after) [7]: 227
P3_MAL Rank (before) [8]: 3704

Sequence: AFFCAQLKSVMGNPTI
P8_MAL Rank (after) [13]: 675
P8_MAL Rank (before) [14]: 1585

Sequence: PNLRNKVLNYLLRTKT
P3_MAL Rank (after) [9]: 574
P3_MAL Rank (before) [10]: 2748

Sequence: PNLRTKELIYLMRTKT
P3_MAL Rank (after) [13]: 667
P3_MAL Rank (before) [14]: 2738

Sequence: AFFCAQQKSVLRNPTK
P8_MAL Rank (after) [9]: 516
P8_MAL Rank (before) [10]: 1725

Sequence: AFLYTFLINLTHPSNF
Population [4]: 0.00309%

Sequence: DWFLSKLSQHLLKRAK
P3_MAL Rank (after) [1]: 682
P3_MAL Rank (before) [2]: 1882

Sequence: PNLRTKVPNYPMLTKT
P3_MAL Rank (after) [13]: 640
P3_MAL Rank (before) [14]: 2680

Sequence: NQWRNELNAAANLSGW
P3_MAL Rank (after) [7]: 255
P3_MAL Rank (before) [8]: 3406

Sequence: PNLRTKVPDYLKRTKT
P3_MAL Rank (after) [13]: 608
P3_MAL Rank (before) [14]: 2730

The next lines start with the values.

Population [3]: 0.00338%
Sequence: YAFTGHLHRYLVQCGV

Rank (after) [5]: 415
Rank (before) [6]: 1755
Sequence: AFLCTHLKNLIHKTTI

Rank (after) [11]: 406
Rank (before) [12]: 2702
Sequence: PNLRTKVLDYLLRTKT

Population [4]: 0.00309%
Sequence: WFYERLVSLILRDTKE

P3_MAL Rank (after) [13]: 629
P3_MAL Rank (before) [14]: 2147
Sequence: LQNQWKLALTAAANLSGW

P8_MAL Rank (after) [7]: 225
P8_MAL Rank (before) [8]: 2193
Sequence: RNFVAYLFRARANKGI

Rank (after) [5]: 439
Rank (before) [6]: 1507
Sequence: YFLHFMLFRRRGTEYI

Rank (after) [5]: 141
Rank (before) [6]: 836
Sequence: AFFWEQLRTVLDHVNDV

Rank (after) [11]: 481
Rank (before) [12]: 1908
Sequence: DWCLSKLSQHTLKREK

Population [4]: 0.0034%
Sequence: AFLYTFLINLTRPTNF

P8_MAL Rank (after) [9]: 520
P8_MAL Rank (before) [10]: 1306
Sequence: WFYNHLVSLFLRDTKV

Population [3]: 0.00376%
Sequence: NRWRNALTAAANLSGW

Rank (after) [5]: 147
Rank (before) [6]: 1837
Sequence: AFLYTFLINLTRQTNF

P8_MAL Rank (after) [7]: 215
P8_MAL Rank (before) [8]: 1986
Sequence: DSKLKKGESIAPALLR

P3_MAL Rank (after) [13]: 584
P3_MAL Rank (before) [14]: 2814
Sequence: HHTGSYGQALAEHEKR

P3_MAL Rank (after) [1]: 738
P3_MAL Rank (before) [2]: 1300
Sequence: WHFHLRLRMHDLLQNI

P8_MAL Rank (after) [13]: 661
P8_MAL Rank (before) [14]: 2142
Sequence: LFLWASLKQLLRSANC

P8_MAL Rank (after) [7]: 253
P8_MAL Rank (before) [8]: 2545
Sequence: TFLIHQNNARMHANIL

Rank (after) [5]: 434
Rank (before) [6]: 2652
Sequence: TRPYLDWPQEPEMHEA

P3_MAL Rank (after) [9]: 559
P3_MAL Rank (before) [10]: 2991
Sequence: SFFWSKLSYHLPAPQH

P3_MAL Rank (after) [7]: 217
P3_MAL Rank (before) [8]: 1547
Sequence: YTALTNSGFHTFLDNE

Population [3]: 0.00488%
Sequence: SSFREGLWRLLELNKK

Rank (after) [5]: 441
Rank (before) [6]: 2482
Sequence: SEFIQKIILWMNQQIV
